As usually defined, the melting point is the temperature, or range, at which the solid turns liquid.

This note sets out measurements from patent US20090270350A1, “Pyridinone Pyrazole Urea and Pyrimidinone Pyrazole Urea Derivatives” (PFIZER INC., priority 2006, published 2009).

System in the first data set: not given
Assay: not given
Conditions: not given
Take `Cc1ccc(C(=O)OCCO)cc1-n1c(C)cc(OCc2ccc(F)cc2CNC(=O)Nc2cc(C(C)(C)C)nn2-c2cccc(OCCO)c2)c(Cl)c1=O` [Example 180, 3-{4-[2-(3-{5-tert-butyl-2-[3-(2-hydroxy-ethoxy)-phenyl]-2H-pyrazol-3-yl}-ureidomethyl)-4-fluoro-benzyloxy]-3-chloro-6-methyl-2-oxo-2H-pyridin-1-yl}-4-methyl-benzoic acid 2-hydroxy-ethyl ester]: the melting point was in the range of 180 to 181 °C.

`COC(=O)c1ccc(C)c(-n2c(C)cc(OCc3ccccc3CNC(=O)Nc3cc(C(C)(C)C)nn3-c3ccc(Cl)c(O)c3)c(Cl)c2=O)c1` [Example 138, 3-[4-(2-{3-[5-tert-butyl-2-(4-chloro-3-hydroxy-phenyl)-2H-pyrazol-3-yl]-ureidomethyl}-benzyloxy)-3-chloro-6-methyl-2-oxo-2H-pyridin-1-yl]-4-methyl-benzoic acid methyl ester] gave a melting point of 193 to 195 °C.

Compound `Cc1ccc(C(=O)NCC(O)CO)cc1-n1c(C)cc(OCc2ccccc2CNC(=O)Nc2cc(C(C)(C)C)nn2-c2ccc(O)c(Cl)c2)c(Cl)c1=O` (centres unmarked) [Example 157, 3-[4-(2-{3-[5-tert-butyl-2-(3-chloro-4-hydroxy-phenyl)-2H-pyrazol-3-yl]-ureidomethyl}-benzyloxy)-3-chloro-6-methyl-2-oxo-2H-pyridin-1-yl]-N-(2,3-dihydroxy-propyl)-4-methyl-benzamide] returned a melting point of 173 to 175 °C.

With `Cc1ccc(C(=O)NCC(O)CO)cc1-n1c(C)cc(OCc2ccccc2CNC(=O)Nc2cc(C(C)(C)C)nn2-c2cccc(OCCO)c2)c(Cl)c1=O` (centres unmarked) [Example 134, 3-{4-[2-(3-{5-tert-Butyl-2-[3-(2-hydroxy-ethoxy)-phenyl]-2H-pyrazol-3-yl}-ureidomethyl)-benzyloxy]-3-chloro-6-methyl-2-oxo-2H-pyridin-1-yl}-N-(2,3-dihydroxy-propyl)-4-methyl-benzamide], the melting point lay within 158 to 160 °C.

The compound `CNC(=O)c1ccc(C)c(-n2c(C)cc(OCc3ccccc3CNC(=O)Nc3cc(C(C)(C)C)nn3-c3cccc(OCCO)c3)c(Cl)c2=O)c1` [Example 133, 3-{4-[2-(3-{5-tert-butyl-2-[3-(2-hydroxy-ethoxy)-phenyl]-2H-pyrazol-3-yl}-ureidomethyl)-benzyloxy]-3-chloro-6-methyl-2-oxo-2H-pyridin-1-yl}-4,N-dimethyl-benzamide] registered a melting point of 168 to 170 °C.

`COC(=O)c1ccc(C)c(-n2c(C)cc(OCc3ccccc3CNC(=O)Nc3cc(C(C)(C)C)nn3-c3cccc(OCCO)c3)c(Cl)c2=O)c1` [Example 130, 3-{4-[2-(3-{5-tert-Butyl-2-[3-(2-hydroxy-ethoxy)-phenyl]-2H-pyrazol-3-yl}-ureidomethyl)-benzyloxy]-3-chloro-6-methyl-2-oxo-2H-pyridin-1-yl}-4-methyl-benzoic acid methyl ester] yielded a melting point of 147 to 148 °C.

In turn, `Cc1ccc(C(=O)NCCN(C)C)cc1-n1c(C)cc(OCc2ccccc2CNC(=O)Nc2cc(C(C)(C)C)nn2-c2ccc(O)c(Cl)c2)c(Cl)c1=O` [Example 158, 3-[4-(2-{3-[5-tert-butyl-2-(3-chloro-4-hydroxy-phenyl)-2H-pyrazol-3-yl]-ureidomethyl}-benzyloxy)-3-chloro-6-methyl-2-oxo-2H-pyridin-1-yl]-N-(2-dimethylamino-ethyl)-4-methyl-benzamide] returned a melting point of 181 to 182 °C.

For the compound `Cc1ccc(C(=O)NCC(O)CO)cc1-n1c(C)cc(OCc2ccccc2CNC(=O)Nc2cc(C(C)(C)C)nn2-c2ccc(Cl)c(O)c2)c(Cl)c1=O` (centres unmarked) [Example 168, 3-[4-(2-{3-[5-tert-Butyl-2-(4-chloro-3-hydroxy-phenyl)-2H-pyrazol-3-yl]-ureidomethyl}-benzyloxy)-3-chloro-6-methyl-2-oxo-2H-pyridin-1-yl]-N-(2,3-dihydroxy-propyl)-4-methyl-benzamide], the melting point fell in the range of 169 to 171 °C.

`COCCNC(=O)c1ccc(C)c(-n2c(C)cc(OCc3ccccc3CNC(=O)Nc3cc(C(C)(C)C)nn3-c3ccc(O)c(Cl)c3)c(Cl)c2=O)c1` [Example 155, 3-[4-(2-{3-[5-tert-butyl-2-(3-chloro-4-hydroxy-phenyl)-2H-pyrazol-3-yl]-ureidomethyl}-benzyloxy)-3-chloro-6-methyl-2-oxo-2H-pyridin-1-yl]-N-(2-methoxy-ethyl)-4-methyl-benzamide]: the melting point was in the range of 179 to 180 °C.

The compound `Cc1ccc(C(=O)NCCO)cc1-n1c(C)cc(OCc2ccccc2CNC(=O)Nc2cc(C(C)(C)C)nn2-c2ccc(O)c(Cl)c2)c(Cl)c1=O` [Example 154, 3-[4-(2-{3-[5-tert-butyl-2-(3-chloro-4-hydroxy-phenyl)-2H-pyrazol-3-yl]-ureidomethyl}-benzyloxy)-3-chloro-6-methyl-2-oxo-2H-pyridin-1-yl]-N-(2-hydroxy-ethyl)-4-methyl-benzamide] displayed a melting point of 195 to 196 °C.

The compound `COC(=O)c1ccc(C)c(-n2c(C)cc(OCc3ccccc3CNC(=O)Nc3cc(C(C)(C)C)nn3-c3ccc(O)cc3)c(Cl)c2=O)c1` [Example 135, 3-[4-(2-{3-[5-tert-butyl-2-(4-hydroxy-phenyl)-2H-pyrazol-3-yl]-ureidomethyl}-benzyloxy)-3-chloro-6-methyl-2-oxo-2H-pyridin-1-yl]-4-methyl-benzoic acid methyl ester] registered a melting point of 199 to 200 °C.

`Cc1ccc(C(=O)NCCO)cc1-n1c(C)cc(OCc2ccccc2CNC(=O)Nc2cc(C(C)(C)C)nn2-c2ccc(Cl)c(O)c2)c(Cl)c1=O` [Example 162, 3-[4-(2-{3-[5-tert-butyl-2-(4-chloro-3-hydroxy-phenyl)-2H-pyrazol-3-yl]-ureidomethyl}-benzyloxy)-3-chloro-6-methyl-2-oxo-2H-pyridin-1-yl]-N-(2-hydroxy-ethyl)-4-methyl-benzamide] returned a melting point of 196 to 197 °C.

On to `CNC(=O)c1ccc(C)c(-n2c(C)cc(OCc3ccccc3CNC(=O)Nc3cc(C(C)(C)C)nn3-c3ccc(O)c(Cl)c3)c(Cl)c2=O)c1` [Example 153, 3-[4-(2-{3-[5-tert-butyl-2-(3-chloro-4-hydroxy-phenyl)-2H-pyrazol-3-yl]-ureidomethyl}-benzyloxy)-3-chloro-6-methyl-2-oxo-2H-pyridin-1-yl]-4,N-dimethyl-benzamide], for which the melting point was 201 to 203 °C.

`COCCNC(=O)c1ccc(C)c(-n2c(C)cc(OCc3ccccc3CNC(=O)Nc3cc(C(C)(C)C)nn3-c3ccc(Cl)c(O)c3)c(Cl)c2=O)c1` [Example 163, 3-[4-(2-{3-[5-tert-butyl-2-(4-chloro-3-hydroxy-phenyl)-2H-pyrazol-3-yl]-ureidomethyl}-benzyloxy)-3-chloro-6-methyl-2-oxo-2H-pyridin-1-yl]-N-(2-methoxy-ethyl)-4-methyl-benzamide] registered a melting point of 182 to 183 °C.

Consider `COC(=O)c1ccc(C)c(-n2c(C)cc(OCc3ccc(F)cc3CNC(=O)Nc3cc(C(C)(C)C)nn3-c3ccc(O)cc3)c(Cl)c2=O)c1` [Example 136, 3-[4-(2-{3-[5-tert-butyl-2-(4-hydroxy-phenyl)-2H-pyrazol-3-yl]-ureidomethyl}-4-fluoro-benzyloxy)-3-chloro-6-methyl-2-oxo-2H-pyridin-1-yl]-4-methyl-benzoic acid methyl ester], for which the melting point is 188 to 190 °C.

`COC(=O)c1ccc(C)c(-n2c(C)cc(OCc3ccc(F)cc3CNC(=O)Nc3cc(C(C)(C)C)nn3-c3ccc(O)c(Cl)c3)c(Cl)c2=O)c1` [Example 140, 3-[4-(2-{3-[5-tert-butyl-2-(3-chloro-4-hydroxy-phenyl)-2H-pyrazol-3-yl]-ureidomethyl}-4-fluoro-benzyloxy)-3-chloro-6-methyl-2-oxo-2H-pyridin-1-yl]-4-methyl-benzoic acid methyl ester] displayed a melting point of 197 to 200 °C.

Compound `Cc1ccc(C(=O)NCCN(C)C)cc1-n1c(C)cc(OCc2ccccc2CNC(=O)Nc2cc(C(C)(C)C)nn2-c2ccc(Cl)c(O)c2)c(Cl)c1=O` [Example 165, 3-[4-(2-{3-[5-tert-butyl-2-(4-chloro-3-hydroxy-phenyl)-2H-pyrazol-3-yl]-ureidomethyl}-benzyloxy)-3-chloro-6-methyl-2-oxo-2H-pyridin-1-yl]-N-(2-dimethylamino-ethyl)-4-methyl-benzamide] displayed a melting point of 185 to 186 °C.

On to `Cc1ccc(C(=O)NCCN(C)C)cc1-n1c(C)cc(OCc2ccc(F)cc2CNC(=O)Nc2cc(C(C)(C)C)nn2-c2ccc(Cl)c(O)c2)c(Cl)c1=O` [Example 166, 3-[4-(2-{3-[5-tert-Butyl-2-(4-chloro-3-hydroxy-phenyl)-2H-pyrazol-3-yl]-ureidomethyl}-4-fluoro-benzyloxy)-3-chloro-6-methyl-2-oxo-2H-pyridin-1-yl]-N-(2-dimethylamino-ethyl)-4-methyl-benzamide], for which the melting point lay within 177 to 178 °C.

For the compound `CNC(=O)c1ccc(C)c(-n2c(C)cc(OCc3ccc(F)cc3CNC(=O)Nc3cc(C(C)(C)C)nn3-c3ccc(O)c(Cl)c3)c(Cl)c2=O)c1` [Example 169, 3-[4-(2-{3-[5-tert-butyl-2-(3-chloro-4-hydroxy-phenyl)-2H-pyrazol-3-yl]-ureidomethyl}-4-fluoro-benzyloxy)-3-chloro-6-methyl-2-oxo-2H-pyridin-1-yl]-4,N-dimethyl-benzamide], the melting point lay within 177 to 180 °C.

For a further data set, the target named is p38α (Homo sapiens, UniProt Q16539). Nature of the data set: p38α/MK2 cascade assay. It counts as biochemical. To be noted: Table 2; same p38α/MK2 cascade assay; 40 minutes preincubation; read-out: p38a/MK2 Cascade 40 min Pre-Incuabtion (% Inhibition): IC50. The gist of the method: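 In a cascade format, p38α was preincubated 40 min with inhibitor (1000–0.05 nM) before adding 1 nM nonactive MK2 (54-400), 5 μM MgATP and 0.5 μM FITC-Hsp27 peptide. Reaction ran 60 min in HEPES pH 7.5 with MgCl2, DTT, 2% DMSO, then EDTA-quenched. Peptide phosphorylation was measured by Caliper mobility shift to give IC50.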
Chain of p38α (Q16539 whole entry): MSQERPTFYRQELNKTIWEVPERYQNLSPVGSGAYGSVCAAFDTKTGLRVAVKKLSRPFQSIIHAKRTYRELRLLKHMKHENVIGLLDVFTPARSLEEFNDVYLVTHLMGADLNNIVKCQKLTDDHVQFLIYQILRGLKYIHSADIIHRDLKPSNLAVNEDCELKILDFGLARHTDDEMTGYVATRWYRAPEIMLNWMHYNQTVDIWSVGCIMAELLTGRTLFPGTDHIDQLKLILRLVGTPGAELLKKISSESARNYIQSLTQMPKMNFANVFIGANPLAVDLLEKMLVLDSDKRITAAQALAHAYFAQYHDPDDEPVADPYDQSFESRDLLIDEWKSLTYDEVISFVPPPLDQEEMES
For `COC(=O)c1ccc(C)c(-n2c(C)cc(OCc3ccccc3CNC(=O)Nc3cc(C(C)(C)C)nn3-c3ccc(O)c(Cl)c3)c(Cl)c2=O)c1` [Example 222, methyl 3-{4-[(2-{[({[3-tert-butyl-1-(3-chloro-4-hydroxy-phenyl)-1H-pyrazol-5-yl]amino}carbonyl)amino]-methyl}-benzyl)oxy]-3-chloro-6-methyl-2-oxopyridin-1(2H)-yl}-4-methylbenzoate], the IC50 worked out at 9.6 nM.
